# Data reported in article PMC4547777 (Angewandte Chemie (International ed. in English), 2015).
# Target: Androgen Receptor (AR) (Homo sapiens, UniProt P10275)
# Assay: competition radioligand binding with [3H]-R1881
# Chain of Androgen Receptor (AR) (P10275 whole entry): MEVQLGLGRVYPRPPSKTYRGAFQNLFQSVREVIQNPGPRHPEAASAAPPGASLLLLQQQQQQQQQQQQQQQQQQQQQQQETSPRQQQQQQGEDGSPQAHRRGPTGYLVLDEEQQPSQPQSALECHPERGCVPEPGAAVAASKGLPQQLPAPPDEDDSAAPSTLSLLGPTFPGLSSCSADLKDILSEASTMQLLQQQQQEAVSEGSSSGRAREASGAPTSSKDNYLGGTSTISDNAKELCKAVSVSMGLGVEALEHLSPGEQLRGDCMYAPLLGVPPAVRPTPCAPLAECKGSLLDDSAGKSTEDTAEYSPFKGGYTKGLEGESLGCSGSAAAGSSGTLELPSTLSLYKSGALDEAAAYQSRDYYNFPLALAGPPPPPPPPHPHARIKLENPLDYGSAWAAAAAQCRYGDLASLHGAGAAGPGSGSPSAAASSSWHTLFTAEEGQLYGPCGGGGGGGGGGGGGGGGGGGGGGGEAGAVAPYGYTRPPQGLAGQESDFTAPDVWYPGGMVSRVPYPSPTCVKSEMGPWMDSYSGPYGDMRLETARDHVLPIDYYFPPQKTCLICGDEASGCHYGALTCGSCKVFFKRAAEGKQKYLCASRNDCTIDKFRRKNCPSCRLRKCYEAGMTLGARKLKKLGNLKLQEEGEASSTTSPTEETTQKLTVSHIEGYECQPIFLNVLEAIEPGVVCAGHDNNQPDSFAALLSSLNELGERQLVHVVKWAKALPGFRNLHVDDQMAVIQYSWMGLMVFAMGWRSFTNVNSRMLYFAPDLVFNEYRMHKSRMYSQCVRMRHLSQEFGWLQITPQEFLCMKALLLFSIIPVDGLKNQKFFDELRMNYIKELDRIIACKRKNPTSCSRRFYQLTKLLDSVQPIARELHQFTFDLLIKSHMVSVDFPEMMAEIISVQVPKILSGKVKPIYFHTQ
smiles,measurement,value
CC1(C)C(=O)N(c2ccc(C#N)c(C(F)(F)F)c2)C(=S)N1CCCCO [RU59063],competition radioligand binding with [3H]-R1881 (parent ligand),competition radioligand binding assay using [^3H]-R1881 showed that appending of the adamantyl group to RU59063 reduced affinity
